Read-outs that look alike come from different tables or passages of the source.
Columns and labels:
[1] = test system: Mycobacterium tuberculosis; settings: 10 millimolar
[2] = liver, water control = 0%
[3] = mouse, in vivo; cited from earlier work
[4] = in vivo; cited from earlier work

SMILES	CFU/ml reduced to [1]	toxin removal ([2]; intravenous) [%]	toxin removal ([2]; oral) [%]	decrease of incidence or size of hepatic nodules or tumors [3]	absorption after oral ingestion [4]
CC(=O)N[C@@H](CS)C(=O)O [NAC, N-acetyl cysteine]	8,000 CFU/ml	–	–	–	–
N[C@@H](CCC(=O)N[C@@H](CS)C(=O)NCC(=O)O)C(=O)O [Plain glutathione, glutathione]	–	70	10	no benefit	not absorbed

From patent US20130202681A1 (priority 2012, published 2013)
